Legend:
[1] = tested on: HCT-116; experiment: Antiproliferative activity against human HCT-116 cells harboring KRAS G13D mutant at 1 uM incubated for 72 hrs by CCK8 assay relative to control; type: functional
[2] = tested on: MIA PaCa-2; experiment: Antiproliferative activity against human MIA PaCa-2 cells harboring KRAS G12C mutant at 0.1 uM incubated for 72 hrs by CCK8 assay relative to control; type: functional
[3] = tested on: MIA PaCa-2; experiment: Antiproliferative activity against human MIA PaCa-2 cells harboring KRAS G12C mutant incubated for 72 hrs by CCK8 assay; type: functional, cell-based; settings: MIA PaCa-2, 72 h
[4] = target: Dual specificity mitogen-activated protein kinase kinase 1 (Homo sapiens, UniProt Q02750); experiment: Inhibition of MEK1 (unknown origin) assessed as remaining activity at 0.1 uM relative to control
[5] = tested on: HCT-116; experiment: Antiproliferative activity against human HCT-116 cells harboring KRAS G13D mutant incubated for 72 hrs by CCK8 assay; type: functional, cell-based; settings: HCT-116, 72 h
[6] = target: Serine/threonine-protein kinase B-raf (Homo sapiens, UniProt P15056); experiment: Inhibition of BRAF (unknown origin) assessed as remaining activity at 0.1 uM relative to control
Chain of Serine/threonine-protein kinase B-raf (P15056 whole entry): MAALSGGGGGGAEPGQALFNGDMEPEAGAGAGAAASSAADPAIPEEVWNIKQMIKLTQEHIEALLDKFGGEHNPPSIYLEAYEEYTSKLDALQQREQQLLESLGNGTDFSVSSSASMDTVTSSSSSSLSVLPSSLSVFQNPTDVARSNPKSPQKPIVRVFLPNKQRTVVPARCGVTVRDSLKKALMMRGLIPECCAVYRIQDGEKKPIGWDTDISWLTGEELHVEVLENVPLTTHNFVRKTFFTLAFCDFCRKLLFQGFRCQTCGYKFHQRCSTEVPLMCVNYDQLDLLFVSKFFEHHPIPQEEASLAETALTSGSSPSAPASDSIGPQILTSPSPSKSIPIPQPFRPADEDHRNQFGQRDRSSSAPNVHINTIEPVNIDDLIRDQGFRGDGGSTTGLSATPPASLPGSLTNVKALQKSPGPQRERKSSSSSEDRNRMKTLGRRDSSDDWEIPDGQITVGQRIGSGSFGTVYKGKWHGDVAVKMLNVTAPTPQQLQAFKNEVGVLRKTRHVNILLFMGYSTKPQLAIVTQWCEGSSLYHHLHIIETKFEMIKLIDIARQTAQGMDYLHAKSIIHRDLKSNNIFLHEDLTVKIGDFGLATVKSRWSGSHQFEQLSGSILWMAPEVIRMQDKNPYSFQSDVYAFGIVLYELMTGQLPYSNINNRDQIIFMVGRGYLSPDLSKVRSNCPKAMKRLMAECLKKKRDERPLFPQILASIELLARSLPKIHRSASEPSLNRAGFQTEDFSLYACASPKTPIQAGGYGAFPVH

Chain of Dual specificity mitogen-activated protein kinase kinase 1 (Q02750 whole entry): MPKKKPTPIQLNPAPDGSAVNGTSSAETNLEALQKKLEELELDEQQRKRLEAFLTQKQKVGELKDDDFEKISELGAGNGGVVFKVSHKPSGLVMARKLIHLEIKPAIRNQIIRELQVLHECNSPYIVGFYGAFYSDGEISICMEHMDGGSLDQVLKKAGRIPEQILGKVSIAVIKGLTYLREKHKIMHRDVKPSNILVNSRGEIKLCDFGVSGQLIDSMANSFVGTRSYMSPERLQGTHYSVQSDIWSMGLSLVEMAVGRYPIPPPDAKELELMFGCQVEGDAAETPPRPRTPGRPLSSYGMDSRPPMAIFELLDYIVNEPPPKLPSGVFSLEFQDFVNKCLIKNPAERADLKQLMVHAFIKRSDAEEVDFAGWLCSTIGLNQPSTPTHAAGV

SMILES | inhibition at 1 µM [1] | inhibition at 0.1 µM [2] | IC50 [3] | Activity [4] | IC50 [5] | Activity [6]
CCNS(=O)(=O)Nc1ccc(F)c(Cn2cnc3c(F)c(Nc4ccc(C5CC5)cc4F)c(C(=O)NOCCO)cc32)c1 | 17.5% | -38.8% | – | – | – | –
CC(C)CNS(=O)(=O)Nc1cccc(Cn2cnc3c(F)c(Nc4ccc(C5CC5)cc4F)c(C(=O)NOCCO)cc32)c1 | 60.2% | 55.8% | 48 nM | 80% | 425 nM | 5%
CNS(=O)(=O)Nc1ccc(F)c(Cn2cnc3c(F)c(Nc4ccc(C5CC5)cc4F)c(C(=O)NOCCO)cc32)c1 | 12% | 7.1% | – | 79% | – | 21%
CCNS(=O)(=O)Nc1cccc(Cn2cnc3c(F)c(Nc4ccc(Br)cc4F)c(C(=O)NOCCO)cc32)c1Cl | 39.8% | 21.9% | – | – | – | –
CNS(=O)(=O)Nc1cccc(Cn2cnc3c(F)c(Nc4ccc(Br)cc4F)c(C(=O)NOCCO)cc32)c1F | 60.3% | 35.7% | 225 nM | 16% | 113 nM | 3%
CNS(=O)(=O)Nc1cccc(Cn2cnc3c(F)c(Nc4ccc(C5CCC5)cc4F)c(C(=O)NOCCO)cc32)c1F | 48.5% | 52.8% | 249 nM | 76% | 898 nM | 5%
CCNS(=O)(=O)Nc1cccc(Cn2cnc3c(F)c(Nc4ccc(Br)cc4F)c(C(=O)NOCCO)cc32)c1F | 65.1% | 22.8% | 362 nM | 20% | 150 nM | 2%
O=C(NOCCO)c1cc2c(ncn2Cc2cccc(NC(=O)C3CCC3)c2)c(F)c1Nc1ccc(C2CC2)cc1F | 25.1% | 38.9% | 1280 nM | 76% | – | 32%
O=C(NOCCO)c1cc2c(ncn2Cc2cccc(NC(=O)C3CC3)c2)c(F)c1Nc1ccc(C2CC2)cc1F | 19.3% | 45% | 628 nM | – | – | –
CNS(=O)(=O)N1CCC(Cn2cnc3c(F)c(Nc4ccc(C5CC5)cc4F)c(C(=O)NOCCO)cc32)C1 (stereo unspecified) | 2.43% | -13.4% | – | – | – | –
CNS(=O)(=O)N1CCCC(Cn2cnc3c(F)c(Nc4ccc(C5CC5)cc4F)c(C(=O)NOCCO)cc32)C1 (stereo unspecified) | -9.58% | 31.1% | – | – | – | –
CCC(=O)Nc1cccc(Cn2cnc3c(F)c(Nc4ccc(C5CC5)cc4F)c(C(=O)NOCCO)cc32)c1 | 17.8% | 18% | 985 nM | 89% | – | 75%
CCNS(=O)(=O)Nc1cc(Cn2cnc3c(F)c(Nc4ccc(C5CC5)cc4F)c(C(=O)NOCCO)cc32)ccc1F | 17.5% | 34.5% | – | – | – | –
CNS(=O)(=O)Nc1cccc(Cn2cnc3c(F)c(Nc4ccc(C5CCCC5)cc4F)c(C(=O)NOCCO)cc32)c1F | 24.8% | 12.1% | – | 98% | – | 13%
O=C(NOCCO)c1cc2c(ncn2Cc2cccc(NC(=O)C3CCCCC3)c2)c(F)c1Nc1ccc(C2CC2)cc1F | 13.7% | 11.5% | – | 88% | – | 35%
CC(C)NS(=O)(=O)Nc1cccc(Cn2cnc3c(F)c(Nc4ccc(C5CC5)cc4F)c(C(=O)NOCCO)cc32)c1 | 59.3% | 65.9% | 150 nM | 55% | 132 nM | 4%
CCNS(=O)(=O)Nc1cccc(Cn2cnc3c(F)c(Nc4ccc(I)cc4F)c(C(=O)NOCCO)cc32)c1F | 69.1% | 65.3% | 43 nM | 8% | 202 nM | 1%

SMILES | inhibition at 1 µM [1] | inhibition at 0.1 µM [2] | IC50 [3] | Activity [4] | IC50 [5] | Activity [6]
CNS(=O)(=O)Nc1cccc(Cn2cnc3c(F)c(Nc4ccc(Br)cc4F)c(C(=O)NOCCO)cc32)c1Cl | 47.8% | 28.4% | – | 15% | – | 3%
O=C(NOCCO)c1cc2c(ncn2Cc2cccc(NC(=O)C3CCCC3)c2)c(F)c1Nc1ccc(C2CC2)cc1F | 4.21% | -29.7% | – | 91% | – | 71%
Cn1cnc2c(F)c(Nc3ccc(Br)cc3F)c(C(=O)NOCCO)cc21 [BINIMETINIB] | 41.4% | 58.8% | 182 nM | – | 2000 nM | –
CS(=O)(=O)Nc1cccc(Cn2cnc3c(F)c(Nc4ccc(C5CC5)cc4F)c(C(=O)NOCCO)cc32)c1 | 46.2% | 50.5% | 138 nM | 75% | – | 6%
CNS(=O)(=O)Nc1cccc(Cn2cnc3c(F)c(Nc4ccc(C)cc4F)c(C(=O)NOCCO)cc32)c1F | 74.8% | 57.7% | 861 nM | 58% | 694 nM | 3%
CNS(=O)(=O)Nc1cc(Cn2cnc3c(F)c(Nc4ccc(C5CC5)cc4F)c(C(=O)NOCCO)cc32)ccc1F | 35.2% | 31.6% | 611 nM | 85% | – | 16%
CNS(=O)(=O)Nc1cccc(Cn2cnc3c(F)c(Nc4ccc(C5CC5)cc4F)c(C(=O)NOCCO)cc32)c1Cl | 55.6% | 62.6% | 169 nM | 19% | 626 nM | 3%
CCNS(=O)(=O)Nc1cccc(Cn2cnc3c(F)c(Nc4ccc(C)cc4F)c(C(=O)NOCCO)cc32)c1F | 57.6% | 55.7% | 219 nM | 54% | 457 nM | 4%
CNS(=O)(=O)Nc1cccc(Cn2cnc3c(F)c(Nc4ccc(I)cc4F)c(C(=O)NOCCO)cc32)c1Cl | 66.7% | 60.8% | 60 nM | 5% | 352 nM | 1%
CNS(=O)(=O)Nc1cccc(Cn2cnc3c(F)c(F)c(C(=O)NOCCO)cc32)c1F | 14.8% | 24.7% | – | – | – | –
CCNS(=O)(=O)Nc1cccc(Cn2cnc3c(F)c(F)c(C(=O)NOCCO)cc32)c1F | 10.8% | 6.04% | – | – | – | –
CCNS(=O)(=O)Nc1cccc(Cn2cnc3c(F)c(Nc4ccc(C5CCC5)cc4F)c(C(=O)NOCCO)cc32)c1F | 56.2% | 29% | 942 nM | 84% | – | 4%
CCNS(=O)(=O)Nc1cccc(Cn2cnc3c(F)c(Nc4ccc(C5CC5)cc4F)c(C(=O)NOCCO)cc32)c1Cl | 49.6% | 76% | 31 nM | 20% | 731 nM | 3%
CCNS(=O)(=O)Nc1cc(F)cc(Cn2cnc3c(F)c(Nc4ccc(C5CC5)cc4F)c(C(=O)NOCCO)cc32)c1 | 56.7% | 76.5% | 32 nM | 59% | 140 nM | 5%
CNS(=O)(=O)Nc1cc(F)cc(Cn2cnc3c(F)c(Nc4ccc(C5CC5)cc4F)c(C(=O)NOCCO)cc32)c1 | 57.4% | 65.8% | 47 nM | 53% | 173 nM | 5%
CCNS(=O)(=O)Nc1cccc(Cn2cnc3c(F)c(Nc4ccc(C5CCCC5)cc4F)c(C(=O)NOCCO)cc32)c1F | 26.9% | 6.88% | – | – | – | –
